Experimental findings from patent US10701876B2, “Production of plants using somatic embryogenesis” (MARS, INCORPORATED, priority 2013, dated 2020) are described below.

This experiment has as its system Theobroma cacao L. CCN-10 clones, primary somatic embryo epicotyl/cotyledon explants. The experiment is described as follows: Direct secondary somatic embryogenesis from primary somatic embryo explants (hormone balance and stressor test). The experiment is classed as cell-based. The method, then:
For the production of secondary embryos, epicotyls are taken from primary somatic embryos with size 1 cm and 40 mg of weight and they were cut in 10-15 pieces and placed into flask with 25 ml of liquid medium for embryogenic induction (Table 5) with some modifications in the experimental design (Table 7) per 5 weeks (step c). The culture is exposed to a light:dark 16:8 photoperiod, at a temperature of 27±2° C. and photosynthetic active radiation (PAR) or photosynthetic photon flux density (PPFD) of 50-190 μmol/m^2 per second. After this period, the somatic embryos in globular stage are transferred into the Petri dish in semi-solid developing media (Table 6) with some modifications (Table 8), with a 21-day culture period in light conditions until the embryos express and develop to the heart or early torpedo stage. Afterward, the cultures were transferred into the Petri dish in the same medium, but without gibberellic acid and with the same culture conditions but in the dark with transferences every 14 days for embryo's maturation. A variety of media were tested to assess the concentrations of plant hormones and stressors to be used in direct secondary somatic embryogenesis, as set forth in the following tables: [table] [table] Cotyledon explants were collected 40 days after induction and were used for study. Samples were fixed with FAA [10% formalin, 5% acetic acid, 50% ethanol (v/v)] per 8 days. The sample must be previously cut into approximately 0.5 to 1.0 mm. Do three (3) washes of 5 minutes each with distilled water or buffer to remove the fixative. […] the material in increasing concentrations of ethanol for at least 1 h of 70%, 85% and 95% at room temperature (incubation time varies with the kind of the material). Since the experiments were established, evaluations have been performed every 14 days, and some dependent variables like: number of calluses formed, number of normal embryos without callus formation, number of abnormal embryos without callus formation, number of pro-embryogenic masses, number of torpedo embryos, number of heart embryos, number of globular embryos, and overall observations. The Dino-Lite digital microscope premier, AM4113/AD4113 series was used for the observations. The experiment was a sequence of mediums where the first was induction medium (Table 7) followed by combination with develop medium (Table 8). The factorial analysis was 5×2, in view of the testing of 2 sucrose concentrations (40 and 80 g/l) and 5 gibberellic acid concentrations (0.0, 0.2, 0.4, 0.6 and 1.0 mg/l), using a completely randomized design.

For `c1ccc(CNc2ncnc3nc[nH]c23)cc1` [BAP, 6-benzylaminopurine], the “direct somatic embryos developed by embryonic regions of cotyledon explants (histological analysis)” value (induction medium with 1.0 mg/L BAP and 40 g/L sucrose, 40 days of culture (FIG. 5)) is “large numbers of direct somatic embryos in globular and heart stage”.
Take `C=C1C[C@]23C[C@@]1(O)CC[C@H]2[C@@]12C=C[C@H](O)[C@@](C)(C(=O)O1)[C@H]2[C@@H]3C(=O)O` [gibberellic acid]: for the setting “1 mg/l gibberellic acid and 40 g/l sucrose in development medium, compared with the other treatments (FIG. 4)”, the “quantity of abnormal embryos” value was “highest quantity of abnormal embryos”. Further, for the setting “different concentrations of gibberellic acid in combination with 40 g/L or 80 g/L sucrose (FIG. 4)”, the “expression of direct somatic embryos (number of embryos produced)” value is reported as “influenced the expression of direct somatic embryos”. In addition, the normal embryos (sequence of media: induction 1.0 mg/l BAP + 40 g/l sucrose, light, 40 days, then 0.6 mg/l gibberellic acid + 40 g/l sucrose, light, 21 days, then same medium without gibberellic acid, darkness) stood at 83.3%.
